Experimental findings from patent publication US10632119B2, “Fused bicyclic 2,4-diaminopyrimidine derivative as a dual ALK and FAK inhibitor” (priority 2012, dated 2020) are described below.

The target of one series is Histamine H2 (Homo sapiens, UniProt P25021). As to the kind of experiment: Receptor selectivity (Cerep). It counts as binding.
The target in a further series is Muscarinic M1 (Homo sapiens, UniProt P11229). The series is described as follows: Receptor selectivity (Cerep). The class given is binding.
Another series deals with DA transporter (Homo sapiens, UniProt Q01959). The series is described as follows: Receptor selectivity (Cerep). It counts as binding.
Series [1] is described as follows: In vitro metabolic stability, rat. The class given is in vitro ADME. The settings on record: rat (R); read-out: In vitro metabolic stability t1/2.
Series [2] can be described thus: In vitro metabolic stability, monkey. The class given is in vitro ADME. The settings on record: monkey (Mo); read-out: In vitro metabolic stability t1/2.
For a further series, the target named is CYP 2D6 (Homo sapiens, UniProt P10635). As to the kind of experiment: CYP inhibition. The class given is in vitro ADME.
In another series the test system is CYP3A4. As to the kind of experiment: CYP3A4 induction in vitro. The settings on record: @ 10 μM.

Chain of Histamine H2 (P25021 whole entry): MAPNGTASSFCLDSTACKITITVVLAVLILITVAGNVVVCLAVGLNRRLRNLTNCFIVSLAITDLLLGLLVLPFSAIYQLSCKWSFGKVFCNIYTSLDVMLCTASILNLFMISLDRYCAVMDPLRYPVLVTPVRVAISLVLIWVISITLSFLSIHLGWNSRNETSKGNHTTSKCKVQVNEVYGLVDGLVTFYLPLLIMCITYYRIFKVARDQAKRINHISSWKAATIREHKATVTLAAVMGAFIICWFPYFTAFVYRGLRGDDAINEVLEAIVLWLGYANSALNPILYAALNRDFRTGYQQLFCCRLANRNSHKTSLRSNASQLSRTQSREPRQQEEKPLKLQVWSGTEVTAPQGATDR
Chain of Muscarinic M1 (P11229 whole entry): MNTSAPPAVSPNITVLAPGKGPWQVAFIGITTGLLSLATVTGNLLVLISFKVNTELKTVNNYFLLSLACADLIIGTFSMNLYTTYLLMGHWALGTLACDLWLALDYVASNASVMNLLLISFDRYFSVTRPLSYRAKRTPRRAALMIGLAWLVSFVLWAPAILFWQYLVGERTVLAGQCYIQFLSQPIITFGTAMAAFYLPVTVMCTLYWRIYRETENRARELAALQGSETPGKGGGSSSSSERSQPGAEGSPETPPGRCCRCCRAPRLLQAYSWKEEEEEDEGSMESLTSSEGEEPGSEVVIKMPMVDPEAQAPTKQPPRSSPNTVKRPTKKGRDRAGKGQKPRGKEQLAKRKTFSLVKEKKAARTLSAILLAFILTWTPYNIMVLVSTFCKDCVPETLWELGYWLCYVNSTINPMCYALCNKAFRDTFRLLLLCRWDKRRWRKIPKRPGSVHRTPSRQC
Chain of CYP 2D6 (P10635 whole entry): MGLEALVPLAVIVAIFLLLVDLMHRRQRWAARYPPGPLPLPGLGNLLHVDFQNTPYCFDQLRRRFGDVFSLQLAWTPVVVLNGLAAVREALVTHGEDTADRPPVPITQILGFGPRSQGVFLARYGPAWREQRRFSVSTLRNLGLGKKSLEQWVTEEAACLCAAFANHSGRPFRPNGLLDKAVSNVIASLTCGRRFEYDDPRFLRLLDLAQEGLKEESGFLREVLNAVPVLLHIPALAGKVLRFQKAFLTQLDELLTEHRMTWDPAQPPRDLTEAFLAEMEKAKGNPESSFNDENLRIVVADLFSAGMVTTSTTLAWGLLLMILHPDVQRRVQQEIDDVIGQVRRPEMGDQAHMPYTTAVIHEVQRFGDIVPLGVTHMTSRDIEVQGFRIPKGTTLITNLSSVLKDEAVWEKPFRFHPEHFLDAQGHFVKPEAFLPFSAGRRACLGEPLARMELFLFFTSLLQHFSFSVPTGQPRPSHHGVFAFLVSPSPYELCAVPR
Chain of DA transporter (Q01959 whole entry, species assumed): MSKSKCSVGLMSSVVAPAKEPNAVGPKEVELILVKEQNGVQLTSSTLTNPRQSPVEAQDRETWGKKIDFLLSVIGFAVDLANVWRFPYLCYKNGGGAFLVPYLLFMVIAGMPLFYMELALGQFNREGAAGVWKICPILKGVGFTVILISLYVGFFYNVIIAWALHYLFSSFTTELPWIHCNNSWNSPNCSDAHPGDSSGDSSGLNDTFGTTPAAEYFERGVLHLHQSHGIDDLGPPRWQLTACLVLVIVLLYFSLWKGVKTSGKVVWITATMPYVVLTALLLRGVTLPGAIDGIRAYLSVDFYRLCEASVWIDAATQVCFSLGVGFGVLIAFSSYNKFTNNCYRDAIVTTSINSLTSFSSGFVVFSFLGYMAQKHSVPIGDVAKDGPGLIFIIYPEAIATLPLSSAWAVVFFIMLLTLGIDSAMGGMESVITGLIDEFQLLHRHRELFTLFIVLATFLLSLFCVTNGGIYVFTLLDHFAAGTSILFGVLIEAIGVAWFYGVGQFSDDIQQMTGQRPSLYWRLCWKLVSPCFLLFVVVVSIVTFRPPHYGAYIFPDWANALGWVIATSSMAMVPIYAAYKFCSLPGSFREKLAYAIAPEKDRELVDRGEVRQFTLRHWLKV

Take `CNC(=O)c1ccccc1Nc1nc(Nc2ccc3c(c2OC)CCC[C@H](N2CCN(CCO)CC2)C3)ncc1Cl` [CEP-37440, 2-[[5-chloro-2-[[(6S)-6-[4-(2-hydroxyethyl)piperazin-1-yl]-1-methoxy-6,7,8,9-tetrahydro-5H-benzo[7]annulen-2-yl]amino]pyrimidin-4-yl]amino]-N-methyl-benzamide]: the Ki worked out at 5200 nM at Histamine H2, 2460 nM on Muscarinic M1 and 2100 nM on DA transporter. Besides, the half-life in series [1] is > 40 min; in series [2], 21 min. For the same molecule, on CYP 2D6, the IC50 was > 30000 nM. In the series with CYP3A4, the “CYP3A4 induction in vitro” value is on record as 1.5 @ 10 μM fold.

Usually Ki stands for a measure of affinity in units of concentration, obtained from inhibition or displacement. The IC50 is the concentration needed to halve the response being measured.
